Assay results as given in patent publication US20240315990A1, “Adelmidrol For Use In Diseases Characterized By Insufficient Agonism Of PPAR-GAMMA Receptor” (Epitech Group S.P.A., priority 2016, published 2024).

Biological target: T1, PPAR-gamma receptor (Rattus norvegicus, UniProt O88275)
T1 construct: from tissue; host or cells: live rat (in vivo, paw edema model)
T1 sequence (O88275 1-505): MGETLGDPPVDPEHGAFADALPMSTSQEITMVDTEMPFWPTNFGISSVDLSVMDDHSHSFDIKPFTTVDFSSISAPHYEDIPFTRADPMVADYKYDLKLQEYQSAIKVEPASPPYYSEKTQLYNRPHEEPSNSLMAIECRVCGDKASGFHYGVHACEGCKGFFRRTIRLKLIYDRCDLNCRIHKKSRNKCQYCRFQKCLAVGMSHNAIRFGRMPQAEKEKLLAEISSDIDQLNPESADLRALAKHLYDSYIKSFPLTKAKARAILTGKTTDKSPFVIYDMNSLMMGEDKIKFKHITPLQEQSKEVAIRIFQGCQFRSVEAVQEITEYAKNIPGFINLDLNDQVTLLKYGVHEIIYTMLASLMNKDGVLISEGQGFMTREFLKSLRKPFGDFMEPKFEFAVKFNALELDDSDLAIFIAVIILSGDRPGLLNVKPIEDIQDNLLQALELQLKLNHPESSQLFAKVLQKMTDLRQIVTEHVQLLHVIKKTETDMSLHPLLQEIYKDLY
Assay: carrageenan-induced rat paw edema with PPAR-gamma antagonist GW9662, residence time of the paw on the hot plate
Format: in vivo
Conditions: GW9662 1 mg/kg i.p. 30 min before CAR, Adelmidrol 10 mg/kg i.p.
Procedure: The experimental model of carrageenan-induced rat paw edema is as shown above. In this experiment, the effect was assessed by measuring the residence time of the animal's paw on the hot plate, thus obtaining percentage data with respect to the control treated with carrageenan alone.
The rats (10 animals per group) were divided into the following experimental groups: • CAR+physiological solution; • CAR+GW9662 (1 mg/kg)+Adelmidrol (10 mg/kg); GW9662 was administered i.p. 30 min before injecting CAR and Adelmidrol (i.p.) when injecting CAR; • CAR+Adelmidrol (10 mg/kg); Adelmidrol was administered i.p. when injecting CAR.

## O=C(Nc1ccccc1)c1cc([N+](=O)[O-])ccc1Cl [GW9662, reference compound]
  effect of pretreatment with PPAR-gamma antagonist on the protective action of Adelmidrol: antagonized the effect of Adelmidrol thus substantially abolishing the protective action thereof
